“Also recorded” adds a separate entry of the source.

Assay [1] deals with mitochondrial supercomplexes. Description: DAB oxidation activity assay of complexes and supercomplexes of the mitochondrial ETC in rat heart MMP. The settings on record: for effect on NADH evoked inhibition (inhibition period) of DAB oxidation, supercomplex activity: in presence of NADH; for inhibition of DAB oxidation by the substrate itself: substrate alone; for effect on NADPH consumption rate / NADPH-inhibition period of DAB oxidation: in presence of NADPH; for effect on succinate evoked decrease in DAB oxidation: in presence of succinate.
Procedure: The crude homogenate was subjected to a 1000×g for 8 min, and the resultant supernatant was centrifuged again at 18,000×g for 15 min (4° C., Microfuge® 22R centrifuge, Beckman Coulter). The pellet was washed in 20 volumes of homogenized buffer using an Ultra-Turrax® (T10 basic, IKA) and re-centrifuged under the same conditions. The homogenate aliquots were stored at −80 ° C. until they were used. Protein concentration was measured by the Bradford method and adjusted to the required concentrations.
(§5) The assay buffer consisted of a phosphate buffer (pH 7,4), EDTA, Cl2Mg, BSA and 3,3′-diaminobenzidine (DAB) in the absence or in the presence of CI and CII substrates and the tested drugs. The reaction was started by adding 0.1 mg/ml membranes homogenates to the assay buffer (25° C.) or putting into contact cell membrane microarrays with assay buffer. DAB oxidation was measured every 5-10 min spectrophotometrically at 460 and 595 nm in a Multiskan microtiter plate reader (Thermo Scientific) for 960 min in the case of homogenates
Results were expressed as means of independent data points±S.E.M. In sake of clarity, biochemical data (Complex I and II activities, superoxide production and supercomplex activity) are presented as percentage of controls with or without the application of ETC inhibitors. Data were analyzed using paired Student's t-test, one-way (followed by Tukey's post hoc test) or two-way ANOVA (followed by Bonferroni's post hoc test), as appropriate.

Assay [2] relates to mitochondrial supercomplexes. Description: DAB oxidation supercomplex assay in MMP isolated from heart of cynomolgus monkey. The settings on record: MMP from hearts of cynomolgus monkey. It is filed as biochemical.
Procedure: as §5
Assay [3] deals with succinate dehydrogenase (complex II). Description: succinate dehydrogenase (complex II) activity assay, DCIP reduction. It is filed as biochemical, rat. The settings on record: succinate (1 mM). As for the experimental part: (§1) CI and CII assays were performed based on a previous protocol with some modifications. The reaction mixture consisted of potassium phosphate buffer (0.8M K2HPO4, 0.2M KH2PO4, pH 7.4), 3 mg/ml BSA, 160 μM 2,6-dichloroindophenol (DCIP) (Sigma) together with the CI or CII substrates. The reaction was started by the addition of 0.1 mg/ml membranes homogenates (25° C.) in the absence or in the presence of decylubiquinone and ETC inhibitors. […] Control experiments were performed to exclude any interference or substrate interaction.

Assay [4] concerns NADH-ubiquinone oxidoreductase (complex I). Description: NADH-ubiquinone oxidoreductase (complex I) activity assay, DCIP reduction. The settings on record: NADH (0.7 mM). It is filed as biochemical, rat. The protocol: as §1
In a further assay the test system is superoxide production. The assay can be described thus: Superoxide production, NBT reduction in membrane homogenates. It is filed as biochemical, rat. The settings on record: NADH (0.7 mM). The protocol: The assay medium for measurement of superoxide production consisted of a 50 mM phosphate buffer (Na2HPO4, NaH2PO4, pH 7,4), 0.5 mg/ml nitro blue tetrazolium (NBT) as a redox dye and CI or CII substrates. The reaction was started by the addition of 0.1 mg/ml membranes homogenates for 360 min (25° C.) with or without decylubiquinone and ETC inhibitors.

Assay [5] concerns reactive oxygen species (ROS) such as superoxide. The settings on record: human tissue cell membrane microarrays. The protocol:
(§2) Membrane homogenates isolated from human liver were suspended in buffer and they were printed (4 nL per spot, 2-5 replicates per sample) at increasing concentrations together with internal patrons onto glass slides using a non-contact microarrayer (Nano_plotter NP 2.1). The same process was used for developing cell membrane microarrays of different human tissues or rat tissues. Microarrays were stored at −20° C. until they were used. ETC activity assay using DAB and NBT as redox dyes
(§3) The assay buffer consisted of a 10 mM phosphate buffer (pH 7.4), 0.05% 3,3′-diaminobenzidine (DAB) or NBT (Nitro blue tetrazolium), 0.2 mM EGTA, 3 mg/ml BSA with or without mitochondrial ETC substrates and electron carriers, such as NADH and succinate. The reaction was started by adding 100 μl of the assay buffer to cell membrane microarrays using an incubation chamber. DAB oxidation or NBT reduction were measured every 20 min using a colorimetric high resolution scanner (Epson Perfection V750 Pro) for 24 hours.
(§4) Microphotographs were captured with the same light parameters and the collection of images was quantified with the MAPIX software (version 7.3.1). The optical densities obtained at different times were analyzed and the slope determined in the linear range was used to calculate the enzymatic rate.

The next assay concerns electron transport chain. The settings on record: human tissue cell membrane microarrays. As for the experimental part: as §2, §3, §4

Take `N#CC(C#N)=NNc1cccc(Cl)c1` [CCCP]: the “effect on NADH evoked inhibition (inhibition period) of DAB oxidation, supercomplex activity” value (from here on “effect on NADH evoked inhibition”) in assay [1] (rat heart MMP) is listed as “induces changes in both”.
Still for that read-out and setting: to `O=[N+]([O-])c1ccc(O)c([N+](=O)[O-])c1` [DNP] belongs “does not alter DAB oxidation”.
Take `NC(=O)C1=CN([C@@H]2O[C@H](COP(=O)(O)OP(=O)(O)OC[C@H]3O[C@@H](n4cnc5c(N)ncnc54)[C@H](O)[C@@H]3O)[C@@H](O)[C@H]2O)C=CC1` [NADH]: the “inhibition of DAB oxidation by the substrate itself” value in assay [1] (rat heart MMP) was “full blockage”.
With `NC(=O)C1=CN([C@@H]2O[C@H](COP(=O)(O)OP(=O)(O)OC[C@H]3O[C@@H](n4cnc5c(N)ncnc54)[C@H](OP(=O)(O)O)[C@@H]3O)[C@@H](O)[C@H]2O)C=CC1` [NADPH], the “inhibition of DAB oxidation by the substrate itself” value in assay [1] (rat heart MMP) was “inhibits DAB oxidation”.
Consider `NC(=O)c1ccc[n+]([C@@H]2O[C@H](COP(=O)([O-])OP(=O)(O)OC[C@H]3O[C@@H](n4cnc5c(N)ncnc54)[C@H](O)[C@@H]3O)[C@@H](O)[C@H]2O)c1` [NAD], for which the “effect on NADPH consumption rate / NADPH-inhibition period of DAB oxidation” value in assay [1] (rat heart MMP) is recorded as “reduces it”.
Regarding `CCCCCCCCCCCCOS(=O)(=O)[O-].[Na+]` [SDS], in assay [1] (rat heart MMP), the “effect on NADH evoked inhibition” value is “effects also observed”.
On the same count and under the same terms, to `[Zn+2]` [Zinc] belongs “enhances the inhibition period evoked by NADH”.
In the case of `CCCCCCCCCCC1=C(C)C(=O)C(OC)=C(OC)C1=O` [dUQ, decylubiquinone], in assay [2] (NADH (0.7 mM)), the “effect on NADH-dependent inhibition period of DAB oxidation” value is given as “significantly reduces the NADH-dependent inhibition period of DAB oxidation”. The “partial blockage of the rotenone effect by dUQ” value in assay [2] (NADH with rotenone) was “not detected in monkey”. The “effect on inhibitor mediated enhancement of NADH inhibition of DAB oxidation” value in assay [1] (dUQ at 10 μM, with NADH and rotenone, antimycin A or myxothiazol) was “reducing the inhibitor mediated effects; also recorded: partial blockage of the rotenone effect”; in assay [1] (dUQ at 50 μM, with NADH and rotenone or antimycin A) it was “potentiating those evoked by rotenone and antimycin A”. Besides, in assay [1] (rat heart MMP, higher concentrations of succinate (5 mM in FIG. 1e)), the “effect on DAB oxidation blockage at higher concentrations of succinate” value is “potentiates the DAB oxidation blockage”. In addition, the “effect on NADH evoked inhibition” value in assay [1] (rat heart MMP) is on record as “slight reduction of the NADH evoked inhibition of DAB oxidation”. Moreover, the “effect on NADPH consumption rate / NADPH-inhibition period of DAB oxidation” value in assay [1] (rat heart MMP) is listed as “NADPH-inhibition period is enhanced”. In assay [3] (antimycin A, dUQ (50 μM)), the “effect of dUQ on the inhibitor's block of DCIP reduction, succinate” value is listed as “blocks the effect of antimycin A”. In addition, the “effect of dUQ on the inhibitor's block of DCIP reduction, NADH” value in assay [4] (myxothiazol, dUQ (50 μM)) is on record as “does not produce the same effect with myxothiazol”. Also, the “superoxide production using NADH” value with superoxide production is listed as “increased in the presence of dUQ”.
For the compound `C[C@@H]1CC[C@@]2(OC1)O[C@H]1[C@@H](O)[C@H]3[C@@H]4CC[C@H]5C[C@@H](O[C@@H]6O[C@H](CO)[C@H](O[C@@H]7O[C@H](CO)[C@@H](O)[C@H](O[C@@H]8OC[C@@H](O)[C@H](O)[C@H]8O)[C@H]7O[C@@H]7O[C@H](CO)[C@H](O)[C@H](O[C@@H]8O[C@H](CO)[C@@H](O)[C@H](O)[C@H]8O)[C@H]7O)[C@H](O)[C@H]6O)[C@H](O)C[C@]5(C)[C@H]4CC[C@]3(C)[C@H]1[C@@H]2C` [digitonin], the “effect on NADH evoked inhibition” value in assay [1] (rat heart MMP) was “enhancement on the NADH inhibition period”.
On to `CO/C(=C/C(N)=O)[C@H](C)[C@H](/C=C/c1csc(-c2csc([C@@H](C)/C=C/C=C/C(C)C)n2)n1)OC` [myxothiazol], for which the “effect on succinate evoked decrease in DAB oxidation” value (“effect on succinate evoked decrease” below) in assay [1] (rat heart MMP) was “promotes the blockage of the succinate-derived electron input”. Moreover, in assay [3], the “DCIP reduction with succinate as substrate” value is given as “not myxothiazol did it”. For the same compound, in assay [4], the “DCIP reduction in the presence of NADH” value is “efficiently blocked DCIP reduction”.
Take `C=C(C)[C@H]1Cc2c(ccc3c2O[C@@H]2COc4cc(OC)c(OC)cc4[C@@H]2C3=O)O1` [rotenone]: the “effect on NADH evoked inhibition” value in assay [1] (rat heart MMP) is on record as “enhances the substrate evoked inhibition of DAB oxidation”. For the same compound, the “superoxide production using NADH” value in the assay on superoxide production was “induces superoxide formation”.
Consider `O=C(O)CCC(=O)O` [succinate], for which the “inhibition of DAB oxidation by the substrate itself” value in assay [1] (rat heart MMP) is “partial inhibition”. Besides, the “formation of reactive oxygen species (formazan production)” value in assay [5] is listed as “produces the formation of reactive oxygen species (ROS) such as superoxide”. Further, in the assay on electron transport chain, the “ETC activity quantified using DAB as redox dye” value is listed as “tissue specifically modulated”.
With antimycin A, in assay [1] (rat heart MMP), the “effect on NADH evoked inhibition” value was “enhancement of the NADH-inhibition period” and the “effect on succinate evoked decrease” value is recorded as “blocks the electron flux generated by CII to cyt c”. The “DCIP reduction with succinate as substrate” value in assay [3] is “did it”. In addition, the “DCIP reduction in the presence of NADH” value in assay [4] was “not antimycin A efficiently blocked DCIP reduction”. Also, the “superoxide production using NADH” value in the assay with superoxide production is reported as “biphasic effect in which a maximum was observed in low micromolar range”.
Consider cytochrome c [cyt c], for which, in assay [1] (rat heart MMP), the “effect on NADH evoked inhibition” value is listed as “cannot bypass the full inhibition caused by NADH on DAB oxidation; also recorded: decreases the time period in which a specific NADH concentration induces the DAB oxidation blockage”; the “effect on NADPH consumption rate / NADPH-inhibition period of DAB oxidation” value was “increases the NADPH consumption rate”; the “effect on succinate evoked decrease” value is “reduces the effect promoted by CI and CII substrates on DAB oxidation”. Further, in assay [1] (soluble cyt c, with NADH and ETC inhibitors), the “NADH consumption rate in the presence of ETC inhibitors” value was “accelerates the NADH consumption rate”.
Turning to sodium deoxycholate, in assay [1] (rat heart MMP), the “effect on NADH evoked inhibition” value was “effects also observed”.

(Values after US20200271640A1, “METHOD FOR SCREENING COMPOUNDS THAT MODULATE THE ACTIVITY OF THE ELECTRON TRANSPORT CHAIN” (IMG Pharma Biotech, S.L., priority 2017, published 2020).)
